The assay addresses T1, recombinant human heparanase (Homo sapiens, UniProt Q9Y251).
T1 sequence (Q9Y251 158-543 limits assumed): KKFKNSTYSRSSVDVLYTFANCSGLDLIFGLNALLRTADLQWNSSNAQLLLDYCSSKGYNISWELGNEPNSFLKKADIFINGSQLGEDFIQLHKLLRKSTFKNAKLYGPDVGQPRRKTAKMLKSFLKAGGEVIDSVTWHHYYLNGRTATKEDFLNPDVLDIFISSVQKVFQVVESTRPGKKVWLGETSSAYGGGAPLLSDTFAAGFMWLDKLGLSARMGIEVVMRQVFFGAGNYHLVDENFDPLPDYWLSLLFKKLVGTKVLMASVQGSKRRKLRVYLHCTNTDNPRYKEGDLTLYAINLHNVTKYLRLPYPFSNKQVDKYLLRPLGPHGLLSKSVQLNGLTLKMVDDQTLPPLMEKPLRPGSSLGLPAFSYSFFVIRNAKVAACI
T1 sequence (Q9Y251 36-109 limits assumed): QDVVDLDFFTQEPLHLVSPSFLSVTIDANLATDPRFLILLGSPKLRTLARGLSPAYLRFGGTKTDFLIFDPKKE
As to the kind of experiment: Heparanase activity on sulfate labeled ECM substrate. The conditions noted are these: compound at 5 μg/ml; recombinant human heparanase 10 ng/ml, 37° C., pH 6.0, 4 h; control (enzyme alone) = 100. It is filed as biochemical. The protocol:
Sulfated compound was tested at two concentrations (1 & 5 μg/ml) for its ability to inhibit the heparanase enzyme, using metabolically sulfate labeled ECM as a substrate. Briefly, sulfate labeled ECM coating the surface of 35-mm tissue culture dishes, is incubated (37° C., pH 6.0, 4 h, 1 ml final volume) with recombinant human heparanase (10 ng/ml) in the absence and presence of increasing amounts of each compound. The reaction mixture contains: 50 mM NaCl, 1 mM DTT, 1 mM CaCl2, and 10 mM buffer Phosphate-Citrate, pH 6.0. To evaluate the occurrence of proteoglycan degradation, the incubation medium is collected and applied for gel filtration on Sepharose 6B columns (0.9×30 cm). Fractions (0.2 ml) are eluted with PBS at a flow rate of 5 ml/h and counted for radioactivity. The excluded volume (VO) is marked by blue dextran and the total included volume (Vt) by phenol red. Degradation fragments of HS side chains are eluted at 0.5<Kav<0.8 (peak II). Results are best presented as the actual gel filtration profiles. Numerical values derived from these graphs are presented in FIG. 1 as heparanase activity (% of control), where: Heparanase activity=Kav×total cpm in peak II (fractions 15-35). Kav=(Ve−Vo/Vt−Vo). • Control Kay=Kay obtained in the presence of enzyme alone (without inhibitors). Effect of Sulfated Malto-Oligosaccharides Mimics (MOS) on Hpa Activity—Tables 1 and 2.

Turning to Maltohexaose sulfate [MHS], the “Heparanase activity (5 μg/ml)” value is given as 27 % of control.
